Results published in the kinase profiling compilation of Christmann-Franck et al. (2016).

Key:
Experiment in all cases: KINOMEscan competition binding
Details in all cases: compound 10.0 µM
PIM3 (human) = PIM3 (human) (UniProt Q86V86)
SIK1 (human) = SIK1 (human) (UniProt P57059)
MERTK (human) = MERTK (human) (UniProt Q12866)
[1] = biological target: TYK2 JH1 catalytic (human) (UniProt P29597)
AURKB (human) = AURKB (human) (UniProt Q96GD4)
MKNK1 (human) = MKNK1 (human) (UniProt Q9BUB5)
CDK14 (human) = CDK14 (human) (UniProt O94921)
RIOK1 (human) = RIOK1 (human) (UniProt Q9BRS2)
FGFR1 (human) = FGFR1 (human) (UniProt P11362)
[2] = test system: ABL1 (human), P00519 [E255K]
PIP4K2B (human) = PIP4K2B (human) (UniProt P78356)
PHKG1 (human) = PHKG1 (human) (UniProt Q16816)
BMX (human) = BMX (human) (UniProt P51813)
TEK (human) = TEK (human) (UniProt Q02763)
PDPK1 (human) = PDPK1 (human) (UniProt O15530)
SRPK3 (human) = SRPK3 (human) (UniProt Q9UPE1)
DDR2 (human) = DDR2 (human) (UniProt Q16832)
MUSK (human) = MUSK (human) (UniProt O15146)
BRSK2 (human) = BRSK2 (human) (UniProt Q8IWQ3)
BMPR1A (human) = BMPR1A (human) (UniProt P36894)
MYLK3 (human) = MYLK3 (human) (UniProt Q32MK0)
MAPKAPK2 (human) = MAPKAPK2 (human) (UniProt P49137)
FGR (human) = FGR (human) (UniProt P09769)
NTRK2 (human) = NTRK2 (human) (UniProt Q16620)
ALK (human) = ALK (human) (UniProt Q9UM73)
[3] = test system: EIF2AK4 KD2 (human), Q9P2K8 [S808G]
TGFBR2 (human) = TGFBR2 (human) (UniProt P37173)
MET (human) = MET (human) (UniProt P08581)
SRC (human) = SRC (human) (UniProt P12931)
PIM1 (human) = PIM1 (human) (UniProt P11309)
MAP2K4 (human) = MAP2K4 (human) (UniProt P45985)
AXL (human) = AXL (human) (UniProt P30530)
MAP3K11 (human) = MAP3K11 (human) (UniProt Q16584)
DCLK3 (human) = DCLK3 (human) (UniProt Q9C098)
ROCK2 (human) = ROCK2 (human) (UniProt O75116)
NTRK1 (human) = NTRK1 (human) (UniProt P04629)
MAP4K2 (human) = MAP4K2 (human) (UniProt Q12851)
BMPR1B (human) = BMPR1B (human) (UniProt O00238)
GSK3B (human) = GSK3B (human) (UniProt P49841)
RPS6KA1 KD1 (human) = RPS6KA1 KD1 (human) (UniProt Q15418)
TAOK3 (human) = TAOK3 (human) (UniProt Q9H2K8)
GSK3A (human) = GSK3A (human) (UniProt P49840)

SRC (human), sequence (P12931 whole entry, looked up): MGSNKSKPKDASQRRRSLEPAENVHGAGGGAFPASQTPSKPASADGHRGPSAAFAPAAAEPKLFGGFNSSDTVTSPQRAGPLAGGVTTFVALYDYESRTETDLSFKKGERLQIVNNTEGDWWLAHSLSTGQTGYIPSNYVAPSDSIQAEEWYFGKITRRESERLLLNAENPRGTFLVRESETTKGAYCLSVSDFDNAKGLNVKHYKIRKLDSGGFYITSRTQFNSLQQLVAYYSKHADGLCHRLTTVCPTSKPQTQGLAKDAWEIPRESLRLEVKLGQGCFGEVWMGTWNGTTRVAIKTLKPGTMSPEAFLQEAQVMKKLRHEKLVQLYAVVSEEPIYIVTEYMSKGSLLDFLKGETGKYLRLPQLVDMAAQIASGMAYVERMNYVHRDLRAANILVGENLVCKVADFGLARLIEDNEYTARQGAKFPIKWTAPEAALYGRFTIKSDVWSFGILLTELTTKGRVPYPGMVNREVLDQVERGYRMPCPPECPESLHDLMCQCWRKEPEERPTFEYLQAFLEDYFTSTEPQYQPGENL
MAP4K2 (human), sequence (Q12851 whole entry, looked up): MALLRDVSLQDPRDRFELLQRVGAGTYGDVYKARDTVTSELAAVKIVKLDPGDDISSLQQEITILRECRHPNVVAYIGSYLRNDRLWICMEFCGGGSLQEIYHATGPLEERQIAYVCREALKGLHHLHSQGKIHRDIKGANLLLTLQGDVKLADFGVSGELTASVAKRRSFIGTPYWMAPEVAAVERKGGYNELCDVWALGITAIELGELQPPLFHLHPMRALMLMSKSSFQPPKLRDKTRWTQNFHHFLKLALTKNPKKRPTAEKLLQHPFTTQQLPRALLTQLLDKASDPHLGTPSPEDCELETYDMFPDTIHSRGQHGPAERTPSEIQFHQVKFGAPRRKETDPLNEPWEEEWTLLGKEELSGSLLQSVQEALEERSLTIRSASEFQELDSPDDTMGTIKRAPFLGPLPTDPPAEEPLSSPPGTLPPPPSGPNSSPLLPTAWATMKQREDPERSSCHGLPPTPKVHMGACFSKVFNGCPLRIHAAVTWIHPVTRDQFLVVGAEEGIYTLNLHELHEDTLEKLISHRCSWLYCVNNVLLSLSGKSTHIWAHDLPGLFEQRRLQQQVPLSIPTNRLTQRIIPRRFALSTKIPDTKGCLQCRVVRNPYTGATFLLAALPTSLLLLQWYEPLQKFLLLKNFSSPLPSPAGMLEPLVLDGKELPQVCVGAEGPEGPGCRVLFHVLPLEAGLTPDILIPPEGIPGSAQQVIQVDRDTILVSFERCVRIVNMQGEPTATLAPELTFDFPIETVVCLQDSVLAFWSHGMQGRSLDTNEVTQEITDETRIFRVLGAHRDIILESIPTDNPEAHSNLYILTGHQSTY
CDK14 (human), sequence (O94921 whole entry, looked up): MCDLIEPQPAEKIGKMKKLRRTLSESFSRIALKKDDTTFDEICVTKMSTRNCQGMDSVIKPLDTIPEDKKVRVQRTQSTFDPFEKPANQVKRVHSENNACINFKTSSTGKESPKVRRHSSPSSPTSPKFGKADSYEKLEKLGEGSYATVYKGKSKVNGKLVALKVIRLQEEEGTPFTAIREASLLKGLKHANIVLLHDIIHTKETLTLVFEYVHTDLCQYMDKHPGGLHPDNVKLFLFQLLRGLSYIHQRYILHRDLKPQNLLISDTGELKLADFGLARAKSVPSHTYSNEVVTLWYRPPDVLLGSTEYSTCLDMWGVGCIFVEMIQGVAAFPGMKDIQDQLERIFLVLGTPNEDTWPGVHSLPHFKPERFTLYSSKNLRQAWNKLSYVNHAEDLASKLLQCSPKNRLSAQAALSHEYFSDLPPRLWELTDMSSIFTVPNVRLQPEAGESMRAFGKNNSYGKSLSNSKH
ABL1 (human), P00519 [E255K], sequence (P00519 whole entry E255K, looked up): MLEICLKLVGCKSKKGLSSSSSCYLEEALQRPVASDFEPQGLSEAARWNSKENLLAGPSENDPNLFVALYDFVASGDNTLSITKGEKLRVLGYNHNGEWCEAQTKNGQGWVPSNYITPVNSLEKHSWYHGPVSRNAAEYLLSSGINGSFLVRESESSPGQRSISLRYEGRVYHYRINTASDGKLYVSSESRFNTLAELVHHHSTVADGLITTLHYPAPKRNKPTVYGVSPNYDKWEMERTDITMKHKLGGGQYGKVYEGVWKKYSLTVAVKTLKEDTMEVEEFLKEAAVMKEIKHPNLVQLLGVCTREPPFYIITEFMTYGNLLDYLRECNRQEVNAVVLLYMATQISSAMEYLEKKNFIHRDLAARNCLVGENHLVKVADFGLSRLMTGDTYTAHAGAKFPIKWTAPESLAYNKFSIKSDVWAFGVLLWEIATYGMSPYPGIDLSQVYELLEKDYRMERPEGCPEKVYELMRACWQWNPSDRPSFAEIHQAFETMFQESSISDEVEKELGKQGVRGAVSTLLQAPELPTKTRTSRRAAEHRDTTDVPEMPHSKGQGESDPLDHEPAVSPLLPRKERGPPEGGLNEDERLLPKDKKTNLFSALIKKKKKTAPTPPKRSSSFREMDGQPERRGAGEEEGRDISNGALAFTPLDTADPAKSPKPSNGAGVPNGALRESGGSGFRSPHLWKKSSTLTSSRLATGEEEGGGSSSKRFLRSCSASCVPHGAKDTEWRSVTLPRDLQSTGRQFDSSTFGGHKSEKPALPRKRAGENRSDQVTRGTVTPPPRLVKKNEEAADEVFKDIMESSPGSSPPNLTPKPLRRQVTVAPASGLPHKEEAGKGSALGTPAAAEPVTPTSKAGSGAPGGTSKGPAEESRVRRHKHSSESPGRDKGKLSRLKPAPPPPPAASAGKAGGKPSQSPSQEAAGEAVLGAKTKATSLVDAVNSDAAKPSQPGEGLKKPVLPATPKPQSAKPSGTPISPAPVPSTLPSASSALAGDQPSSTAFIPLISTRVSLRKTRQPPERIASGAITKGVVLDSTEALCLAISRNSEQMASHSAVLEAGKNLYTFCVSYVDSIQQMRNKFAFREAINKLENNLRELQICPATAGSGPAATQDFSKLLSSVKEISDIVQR
FGFR1 (human), sequence (P11362 whole entry, looked up): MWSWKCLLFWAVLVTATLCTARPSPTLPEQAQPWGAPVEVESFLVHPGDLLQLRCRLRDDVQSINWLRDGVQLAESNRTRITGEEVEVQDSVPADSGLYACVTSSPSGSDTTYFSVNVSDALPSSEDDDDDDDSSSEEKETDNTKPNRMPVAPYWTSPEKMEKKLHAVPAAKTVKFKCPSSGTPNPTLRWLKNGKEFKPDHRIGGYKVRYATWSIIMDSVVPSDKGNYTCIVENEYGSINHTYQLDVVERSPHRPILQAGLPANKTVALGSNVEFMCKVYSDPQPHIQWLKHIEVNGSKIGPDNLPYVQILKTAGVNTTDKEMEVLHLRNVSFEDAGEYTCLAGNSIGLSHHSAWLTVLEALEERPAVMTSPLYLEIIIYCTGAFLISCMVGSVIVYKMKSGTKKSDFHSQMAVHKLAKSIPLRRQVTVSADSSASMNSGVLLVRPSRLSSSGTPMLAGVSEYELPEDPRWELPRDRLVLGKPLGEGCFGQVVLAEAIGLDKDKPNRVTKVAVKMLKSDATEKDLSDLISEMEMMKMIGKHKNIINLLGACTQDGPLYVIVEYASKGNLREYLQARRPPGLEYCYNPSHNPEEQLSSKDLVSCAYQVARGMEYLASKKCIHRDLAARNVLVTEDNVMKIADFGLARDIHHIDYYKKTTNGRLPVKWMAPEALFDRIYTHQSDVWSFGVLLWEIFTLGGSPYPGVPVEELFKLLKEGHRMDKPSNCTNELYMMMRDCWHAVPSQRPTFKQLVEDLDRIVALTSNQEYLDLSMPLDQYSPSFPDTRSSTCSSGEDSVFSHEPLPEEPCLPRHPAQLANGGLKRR
DDR2 (human), sequence (Q16832 whole entry, looked up): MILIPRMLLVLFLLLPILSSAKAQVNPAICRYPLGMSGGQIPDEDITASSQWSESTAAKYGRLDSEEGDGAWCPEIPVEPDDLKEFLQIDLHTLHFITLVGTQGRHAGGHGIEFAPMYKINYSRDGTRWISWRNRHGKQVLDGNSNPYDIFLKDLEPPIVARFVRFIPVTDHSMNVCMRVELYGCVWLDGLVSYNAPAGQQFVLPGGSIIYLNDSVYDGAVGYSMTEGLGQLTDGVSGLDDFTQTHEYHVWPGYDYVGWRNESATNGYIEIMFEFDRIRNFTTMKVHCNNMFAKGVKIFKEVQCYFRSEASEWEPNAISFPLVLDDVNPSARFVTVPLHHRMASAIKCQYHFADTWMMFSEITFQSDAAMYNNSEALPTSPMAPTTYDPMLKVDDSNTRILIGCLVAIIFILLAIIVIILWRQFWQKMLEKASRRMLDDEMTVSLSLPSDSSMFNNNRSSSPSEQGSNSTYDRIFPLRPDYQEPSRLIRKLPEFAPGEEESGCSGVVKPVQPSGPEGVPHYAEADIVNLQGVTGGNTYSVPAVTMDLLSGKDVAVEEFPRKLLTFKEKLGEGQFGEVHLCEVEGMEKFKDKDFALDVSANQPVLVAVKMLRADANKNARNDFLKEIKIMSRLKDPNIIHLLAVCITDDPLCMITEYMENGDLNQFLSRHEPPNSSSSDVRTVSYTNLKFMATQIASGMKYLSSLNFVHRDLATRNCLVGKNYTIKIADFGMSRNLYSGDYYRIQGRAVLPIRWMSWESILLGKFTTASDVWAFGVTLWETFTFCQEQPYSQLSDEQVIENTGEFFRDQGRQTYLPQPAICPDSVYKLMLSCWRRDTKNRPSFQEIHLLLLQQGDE
AURKB (human), sequence (Q96GD4 whole entry, looked up): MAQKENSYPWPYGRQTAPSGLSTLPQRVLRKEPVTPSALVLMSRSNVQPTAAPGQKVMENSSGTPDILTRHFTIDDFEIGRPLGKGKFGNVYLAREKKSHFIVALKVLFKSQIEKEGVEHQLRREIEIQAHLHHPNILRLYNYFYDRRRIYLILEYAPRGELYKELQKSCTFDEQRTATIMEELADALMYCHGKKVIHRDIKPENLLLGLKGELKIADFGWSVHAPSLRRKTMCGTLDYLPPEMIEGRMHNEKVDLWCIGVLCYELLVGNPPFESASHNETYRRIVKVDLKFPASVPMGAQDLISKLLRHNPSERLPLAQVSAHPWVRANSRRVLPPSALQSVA

CCN1CCN(Cc2ccc(NC(=O)c3ccc(C)c(/C=C/c4cnc(Nc5cc(N6CCNCC6)nc(C)n5)cn4)c3)cc2C(F)(F)F)CC1
kinase still bound, per cent of control (PIM3 (human)): 55%
kinase still bound, per cent of control (SIK1 (human)): 3.6%
kinase still bound, per cent of control (MERTK (human)): 31%
kinase still bound, per cent of control [1]: 29%
kinase still bound, per cent of control (AURKB (human)): 100%
kinase still bound, per cent of control (MKNK1 (human)): 89%
kinase still bound, per cent of control (CDK14 (human)): 88%
kinase still bound, per cent of control (RIOK1 (human)): 100%
kinase still bound, per cent of control (FGFR1 (human)): 1.6%
kinase still bound, per cent of control [2]: 0.3%
kinase still bound, per cent of control (PIP4K2B (human)): 83%
kinase still bound, per cent of control (PHKG1 (human)): 100%
kinase still bound, per cent of control (BMX (human)): 12%
kinase still bound, per cent of control (TEK (human)): 0%
kinase still bound, per cent of control (PDPK1 (human)): 100%
kinase still bound, per cent of control (SRPK3 (human)): 82%
kinase still bound, per cent of control (DDR2 (human)): 0%
kinase still bound, per cent of control (MUSK (human)): 5.2%
kinase still bound, per cent of control (BRSK2 (human)): 100%
kinase still bound, per cent of control (BMPR1A (human)): 100%
kinase still bound, per cent of control (MYLK3 (human)): 59%
kinase still bound, per cent of control (MAPKAPK2 (human)): 100%
kinase still bound, per cent of control (FGR (human)): 4.5%
kinase still bound, per cent of control (NTRK2 (human)): 1%
kinase still bound, per cent of control (ALK (human)): 100%
kinase still bound, per cent of control [3]: 0.8%
kinase still bound, per cent of control (TGFBR2 (human)): 54%
kinase still bound, per cent of control (MET (human)): 78%
kinase still bound, per cent of control (SRC (human)): 0.25%
kinase still bound, per cent of control (PIM1 (human)): 76%
kinase still bound, per cent of control (MAP2K4 (human)): 100%
kinase still bound, per cent of control (AXL (human)): 26%
kinase still bound, per cent of control (MAP3K11 (human)): 10%
kinase still bound, per cent of control (DCLK3 (human)): 87%
kinase still bound, per cent of control (ROCK2 (human)): 51%
kinase still bound, per cent of control (NTRK1 (human)): 0.45%
kinase still bound, per cent of control (MAP4K2 (human)): 0.1%
kinase still bound, per cent of control (BMPR1B (human)): 77%
kinase still bound, per cent of control (GSK3B (human)): 100%
kinase still bound, per cent of control (RPS6KA1 KD1 (human)): 100%
kinase still bound, per cent of control (TAOK3 (human)): 0%
kinase still bound, per cent of control (GSK3A (human)): 81%

COc1cc(N2CCC(N3CCN(C)CC3)CC2)ccc1Nc1ncc(Cl)c(Nc2ccccc2S(=O)(=O)C(C)C)n1
kinase still bound, per cent of control (PIM3 (human)): 40%
kinase still bound, per cent of control (MERTK (human)): 0%
kinase still bound, per cent of control [1]: 0.45%
kinase still bound, per cent of control (AURKB (human)): 1%
kinase still bound, per cent of control (MKNK1 (human)): 40%
kinase still bound, per cent of control (CDK14 (human)): 40%
kinase still bound, per cent of control (RIOK1 (human)): 2.6%
kinase still bound, per cent of control (FGFR1 (human)): 0%
kinase still bound, per cent of control [2]: 19%
kinase still bound, per cent of control (PIP4K2B (human)): 11%
kinase still bound, per cent of control (PHKG1 (human)): 0.1%
kinase still bound, per cent of control (TEK (human)): 0%
kinase still bound, per cent of control (PDPK1 (human)): 28%
kinase still bound, per cent of control (SRPK3 (human)): 1.7%
kinase still bound, per cent of control (DDR2 (human)): 14%
kinase still bound, per cent of control (MUSK (human)): 0.35%
kinase still bound, per cent of control (BRSK2 (human)): 0.5%
kinase still bound, per cent of control (BMPR1A (human)): 0%
kinase still bound, per cent of control (MYLK3 (human)): 40%
kinase still bound, per cent of control (MAPKAPK2 (human)): 40%
kinase still bound, per cent of control (FGR (human)): 2.8%
kinase still bound, per cent of control (NTRK2 (human)): 8.4%
kinase still bound, per cent of control [3]: 4.5%
kinase still bound, per cent of control (TGFBR2 (human)): 2.7%
kinase still bound, per cent of control (MET (human)): 0%
kinase still bound, per cent of control (SRC (human)): 0.2%
kinase still bound, per cent of control (PIM1 (human)): 40%
kinase still bound, per cent of control (MAP2K4 (human)): 1.6%
kinase still bound, per cent of control (AXL (human)): 0.1%
kinase still bound, per cent of control (MAP3K11 (human)): 20%
kinase still bound, per cent of control (DCLK3 (human)): 0%
kinase still bound, per cent of control (ROCK2 (human)): 0.95%
kinase still bound, per cent of control (NTRK1 (human)): 12%
kinase still bound, per cent of control (MAP4K2 (human)): 9.4%
kinase still bound, per cent of control (BMPR1B (human)): 1.2%
kinase still bound, per cent of control (GSK3B (human)): 40%
kinase still bound, per cent of control (RPS6KA1 KD1 (human)): 0.25%
kinase still bound, per cent of control (TAOK3 (human)): 0.1%
kinase still bound, per cent of control (GSK3A (human)): 40%

CCN1CCN(Cc2ccc(NC(=O)c3ccc(C)c(Oc4ccnc5[nH]ccc45)c3)cc2C(F)(F)F)CC1
kinase still bound, per cent of control (SIK1 (human)): 5.3%
kinase still bound, per cent of control (CDK14 (human)): 0.4%
kinase still bound, per cent of control (FGFR1 (human)): 1.7%
kinase still bound, per cent of control [2]: 1.2%
kinase still bound, per cent of control (BMX (human)): 2.4%
kinase still bound, per cent of control (TEK (human)): 0%
kinase still bound, per cent of control (DDR2 (human)): 5.1%
kinase still bound, per cent of control (MUSK (human)): 0.2%
kinase still bound, per cent of control (FGR (human)): 1.2%
kinase still bound, per cent of control (ALK (human)): 0.55%
kinase still bound, per cent of control (SRC (human)): 0.2%
kinase still bound, per cent of control (MAP4K2 (human)): 0.3%
